“Also recorded” adds a separate entry of the source.
What was measured:
BoNT/A = BoNT/A (Clostridium botulinum, UniProt P0DPI1); assay type: cell-based, C. botulinum
Sequence of BoNT/A (P0DPI1 2-448 limits assumed): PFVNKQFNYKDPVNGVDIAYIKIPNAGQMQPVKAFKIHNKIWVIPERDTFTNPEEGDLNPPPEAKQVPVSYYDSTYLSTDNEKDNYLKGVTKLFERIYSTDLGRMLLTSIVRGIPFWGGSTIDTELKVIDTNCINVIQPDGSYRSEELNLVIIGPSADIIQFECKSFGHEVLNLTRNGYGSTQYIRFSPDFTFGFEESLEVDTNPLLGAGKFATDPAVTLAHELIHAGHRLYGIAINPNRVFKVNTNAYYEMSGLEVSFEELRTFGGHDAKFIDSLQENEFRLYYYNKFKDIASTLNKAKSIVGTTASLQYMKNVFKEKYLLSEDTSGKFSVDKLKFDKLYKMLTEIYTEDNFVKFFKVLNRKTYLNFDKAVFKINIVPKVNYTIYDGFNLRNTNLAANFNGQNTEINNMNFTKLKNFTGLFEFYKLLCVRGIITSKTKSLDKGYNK

Structure (SMILES) | Cytotoxicity (result in words) (hiPSC-derived neurons) | Inhibition (BoNT/A) | Inhibition / protection of SNAP-25 from the neurotoxin (result in words) (BoNT/A) | Cytotoxicity (hiPSC-derived neurons; at 150 µM)
O=C(CC(CCO)c1ccc(Cl)cc1Cl)NOC(=O)NCc1ccccc1 (centres unmarked) [compound 2, N-((benzylcarbamoyl)oxy)-3-(2,4-dichlorophenyl)-5-hydroxypentanamide] | did not show cytotoxicity | no inhibition; also recorded: partial inhibition at 300 µM | ineffective inhibitors | 
O=C(/C=C/c1ccc(Cl)cc1Cl)NOC(=O)NCc1ccccc1 [compound 1, (E)-N-((benzylcarbamoyl)oxy)-3-(2,4-dichlorophenyl)acrylamide] |  |  | ineffective inhibitors | cytotoxic at 150 µM ^a

Source: PMC3919520 (Bioorganic & medicinal chemistry, 2013)
